“Also recorded” adds a separate entry of the source. Where a SMILES comes first, the peptide text is derived from it. [ ]: non-standard residue; d: D form. The star is where a group is joined. Sta = CC(C)C[C@H](N)[C@@H](O)CC(=O)O; Isovaleryl = CC(C)CC(=O)*; 4Abz = Nc1ccc(C(=O)O)cc1; Cbz = O=C(OCc1ccccc1)*; CH2Cl = ClC*; NHOH = ON*

The first series deals with HIV-1BAL. The series is described as follows: HIV-1BAL infection of CD8-depleted PBMC, FACS (intracellular p24, CD4, CD62L). The settings on record: HIV-1BAL infected cells. Format: cell-based. The text has this: The use of healthy human peripheral blood mononuclear cells (PBMC) is approved by the Department of Transfusion Medicine at the Clinical Center of National Institutes of Health. The use of PBMC from HIV-1 infected individuals for the study was approved under protocol #02-I-0202 by the Institutional Review Board (IRB) of National Institutes of Health with written informed consent from all donors. Peripheral blood mononuclear cells (PBMCs) from anonymous healthy donors were isolated by Ficoll-Paque gradient, and cultured in RPMI 1640 supplemented with 10% FBS, 1%Penicillin/streptomycin, 1% HEPES buffer and 20 U/mL IL-2 (culture media); and stimulated with 0.2 μg/mL anti-CD3 antibody (okt3) for 2 days. CD8^+ T cells were depleted prior to infection using the Stemcell CD8 positive selection kit according to manufacturer’s instructions. CD8-depleted PBMCs were plated at 2×10^6 cells/ml in 48-well plates in 1 mL culture media with various inhibitors for 60 min prior to the addition of ~80 TCID50 HIV-1BAL or HIV-1LAI. Inhibitors were replenished during media change every 3 days. The infections were proceeded with or without inhibitors for 6 days or otherwise specified number of days and then analyzed by FACS staining using fluorescent labeled CD4-BV510, CD62L-APC and CD3-PEC7 antibodies (BD Biosciences). Cells were then washed and permeabilized with CytoFix/CytoPerm (BD Biosciences) solution before intracellular staining for HIV p24 antigen using FITC conjugated anti-p24 antibody clone KC57 (Beckman Coulter, catalog 6604665). All assays were performed with cell viabilities >80%. Replication competent HIV-1 viruses were obtained from the NIH AIDS Reagent Program^4, and expanded by infecting activated CD8-depleted PBMCs, and TCID50 was determined by p24 ELISA.
Consider `CC(C)C[C@H](CC(=O)NO)C(=O)N[C@@H](Cc1ccc2ccccc2c1)C(=O)N[C@@H](C)C(N)=O` [TAPI-0], for which the “accumulation of infected CD4−/CD62L− T cells (loss of CD62L)” value is reported as “did not inhibit the accumulation”.

The series is the same for the next values; noted with them: day 6; 0.5μM compounds.
For `C[C@@H]1CCO[C@H]2Cn3cc(C(=O)NCc4ccc(F)cc4F)c(=O)c(O)c3C(=O)N12` [Doultegravir], the “p24 staining in HIV-1BAL infection of PBMC” value is given as “no significant staining”.

Still in this series, the particulars now being: day 7 post infection; compounds at 100 μM, GI254023X at 250 μM.
`O=c1oc(Cl)c(Cl)c2ccccc12` [3,4-DCIC, 3,4-Dichloroisocouman]: the “effect on HIV-1BAL infection (intracellular p24)” value is reported as “did not enhance HIV-1 infection”.

Take `CC(C)C[C@H](CC(=O)NO)C(=O)N[C@@H](Cc1ccc2ccccc2c1)C(=O)N[C@@H](C)C(N)=O` [TAPI-0]: the “effect on HIV-1BAL infection (intracellular p24)” value is recorded as “fail to significantly suppress the viral infections”.

The subject of the next series is CD62L shedding. The series is described as follows: Soluble CD62L ELISA, anti-CD3/PHA stimulated PBMC or CD4 T cells. Format: cell-based, human. The settings on record: 10 μM compound; stimulated cells; ELISA. As to the method: PBMC from de-identified healthy donors were obtained with informed consent from the Department of Transfusion Medicine, National Institutes of Health under Biological reagent Registry RD-14-IX-12 approved by NIH biological safety board. […] IL-2 was added at a final concentration of 20 U/mL. CD3 antibody okt3 was used at ~0.2 μg/mL final concentration. […] Supernatants were collected and assessed using either the CD62L or TNF-α Duo Set ELISA kit according to manufacturer’s instructions (R&D Systems, Inc.). The viability of cells treated with compounds was assessed by acridine orange / propidiom iodide (AO/PI Logosbio catalog F23001) staining using Luna-FL cell counter following the manufacture’s instruction.^2
On to Aprotinin, for which the “Shedding inhibition Stimulated” value is given as “− (0% inhibition)”.

As for `NC(=O)CI` [Iodoacetamide], the “Shedding inhibition Stimulated” value is recorded as “− (0% inhibition)”.

Turning to `CC[C@H](C)[C@H](NC(C)=O)C(=O)N[C@@H](CCC(=O)O)C(=O)N[C@H](C(=O)N[C@H](C=O)CC(=O)O)[C@@H](C)O` [GrzB II] (Ac-IETD-aldehyde), the “Shedding inhibition Stimulated” value is reported as “− (0% inhibition)”.

In the case of `CC(C)C[C@H](CC(=O)NO)C(=O)N[C@H](C(=O)N[C@@H](C)C(=O)NCCN)C(C)(C)C` [TAPI-2], the “Shedding inhibition Stimulated” value is “++ (>50%)”.

As to `O=S(=O)(CC1CS1)c1ccc(Oc2ccccc2)cc1` (stereo not shown) [SB-3CT], the “Shedding inhibition Stimulated” value was “− (0% inhibition)”.

Consider `CC[C@H](C)[C@H](NC(C)=O)C(=O)N[C@@H](CCC(=O)O)C(=O)N1CCC[C@H]1C(=O)N[C@H](C=O)CC(=O)O` [GrzB IV] (Ac-IEPD-aldehyde), for which the “Shedding inhibition Stimulated” value is reported as “− (0% inhibition)”.

With `NCCc1ccc(S(=O)(=O)F)cc1` [AEBSF], the “Shedding inhibition Stimulated” value is “− (0% inhibition)”.

`CC(C)C[C@@H](NC(=O)[C@@H]1CCCN1C(=O)CNC(=O)c1ccc(N)cc1)C(=O)N[C@@H](C)C(=O)NO` [Compound 4-m-GPDLA, 4-aminobenzoyl-Gly-Pro-D-Leu-ala hydroxamic acid] (H-[4Abz]GP[dL]A-{NHOH}): the “Shedding inhibition Stimulated” value was “− (0% inhibition)”.

For `O=c1oc(Cl)c(Cl)c2ccccc12` [3,4-DCIC, 3,4-Dichloroisocouman], the “Shedding inhibition Stimulated” value is listed as “− (0% inhibition)”.

For the molecule `CC(C)C[C@H](CC(=O)NO)C(=O)N[C@@H](Cc1ccc2ccccc2c1)C(=O)N[C@@H](C)C(=O)NCCN` [TAPI-1], the “Shedding inhibition Stimulated” value was “++ (>50%)”.

Take Cystatin: the “Shedding inhibition Stimulated” value was “− (0% inhibition)”.

On to `Cc1cc(CCC[C@H](CC(=O)NO)C(=O)N[C@H](C(=O)N[C@H](C)c2ccccc2)C(C)(C)C)ccc1-c1ccccc1` [UK-356618, (2R)-N1-[(1S)-2,2-Dimethyl-1-({[(1R)-1-phenylethyl]amino}carbonyl)propyl]-2-{3-[(3-methyl-4-phenyl)-phenyl]propyl}-(N4-hydroxy)butanediamide], for which the “Shedding inhibition Stimulated” value is listed as “− (0% inhibition)”.

As for `CC(C)(C)OC(=O)N[C@H]1[C@@H]2CNC[C@@H]21` [CP-101537, N-(1a,5a,6a)-3-Azabicyclo[3.1.0]hex-6-yl-carbamic acid 1,1-dimethylethyl ester], the “Shedding inhibition Stimulated” value was “− (0% inhibition)”.

As for `CC(C)C[C@H](NC(=O)[C@H]1O[C@@H]1C(=O)O)C(=O)NCCCCN=C(N)N` [Compound E64], the “Shedding inhibition Stimulated” value is listed as “− (0% inhibition)”.

Turning to `COc1ccc(S(=O)(=O)N(CC(=O)NO)CC(C)C)cc1` [NNGH, N-Isobutyl-N-(4-methoxyphenylsulfonyl)glycyl hydroxamic acid], the “Shedding inhibition Stimulated” value was “− (0% inhibition)”.

On to `O=S(=O)(F)Cc1ccccc1` [PMSF], for which the “Shedding inhibition Stimulated” value is given as “− (0% inhibition)”.

Turning to `CC(C)C[C@H](CC(=O)NO)C(=O)N[C@@H](Cc1ccc2ccccc2c1)C(=O)N[C@@H](C)C(N)=O` [TAPI-0], the “Shedding inhibition Stimulated” value is reported as “++ (>50%)”.

As for `C[C@H](NC(=O)OCc1ccccc1)C(=O)N[C@@H](C)C(=O)N[C@@H](CC(=O)O)C(=O)CCl` [GrzB I] (Cbz-Ala-Ala-Asp-CH2Cl), the “Shedding inhibition Stimulated” value is listed as “− (0% inhibition)”.

Still in this series, the particulars now being: 100 μM compound; stimulated cells; ELISA.
On to `CCOCOC[C@H](C[C@H](C)C(=O)NO)NC(=O)c1ccc(Oc2ccccc2)cc1` [ONO-4817], for which the “Shedding inhibition Stimulated” value is given as “+/− (<20)”.

The same series, now with this note: Homo sapiens; 10 μM compound; stimulated cells; ELISA.
In general, inhibition refers to the drop in the measured response relative to a control, in per cent. Molecule `N=C(N)c1ccc2cc(OC(=O)c3ccc(N=C(N)N)cc3)ccc2c1` [Nafamostat] returned an inhibition at 10 µM of 0%.

`C[C@H]1c2cccc(O)c2C(=O)C2=C(O)[C@]3(O)C(=O)C(C(N)=O)=C(O)[C@@H](N(C)C)[C@@H]3[C@@H](O)[C@@H]21` [Doxycycline] came in with an inhibition at 10 µM of 0%.

`CC(=O)N[C@@H](CC(C)C)C(=O)N[C@@H](CC(C)C)C(=O)N[C@H](C=O)CCCNC(=N)N` [Leupeptin]: the inhibition at 10 µM is 0%.

Molecule `CC(C)[C@H](NS(=O)(=O)c1ccc(-c2ccc(Br)cc2)cc1)C(=O)O` [PD166793, (S)-2-(4′-Bromo-biphenyl-4-sulfonylamino)-3-methyl-butyric acid hydrate] showed an inhibition at 10 µM of 0%.

Molecule `CC(C)(NS(=O)(=O)c1ccc(Oc2ccc(F)cc2)cc1)C(=O)NO` [CP-471474, 2-[[[4-(4-Fluorophenoxy)phenyl]sulfonyl]amino]-N-hydrox y-2-methylpropanamide] had an inhibition at 10 µM of 0%.

Consider `CC(C)CC(=O)N[C@H](C(=O)N[C@H](C(=O)N[C@@H](CC(C)C)[C@@H](O)CC(=O)N[C@@H](C)C(=O)N[C@@H](CC(C)C)[C@@H](O)CC(=O)O)C(C)C)C(C)C` [Pepstatin A] (Isovaleryl-VV[Sta]A[Sta]-OH), for which the inhibition at 10 µM stood at 0%.

Regarding `CC(C)C[C@H](NC(=O)[C@@H](O)[C@H](N)Cc1ccccc1)C(=O)O` [Bestatin], the inhibition at 10 µM was 0%.

`CC1(c2ccccc2)NC(=O)NC1=O` (stereo not shown) [Compound 5-m-5-p, 5-methyl-5-phenylhydantoin]: testing at 10 µM gave an inhibition of 0%.

With `CCCC(C)NC(=O)c1ccc(Cl)c(Cl)c1` (stereo not shown) [NSC405020, 3,4-Dichloro-N-(1-methylbutyl)-benzamide], 10 µM produced 0% inhibition.

In turn, `OB(O)c1ccc2[nH]ccc2c1` [Compound 5-Indolylb, 5-indolylboronic acid] registered an inhibition at 10 µM of 0%.

`CC(C)ON([C@@H](C(=O)NO)C(C)C)S(=O)(=O)c1ccc(-c2ccccc2)cc1` [ARP 101, (2R)-2-[([1,1′-Biphenyl]-4-ylsulfonyl)(1-methylethoxy)amino]-N-hydroxy-3-methyl-butanamide]: the inhibition at 10 µM is less than 20%.

Staying with this series, now noted: stimulated PBMC or CD4 T cells, ELISA.
On to `O=c1oc(Cl)c(Cl)c2ccccc12` [3,4-DCIC, 3,4-Dichloroisocouman], for which the “effect on CD62L shedding / soluble CD62L” value was “significantly increased soluble CD62L concentration; also recorded: enhanced CD62L shedding”.

With TAPI, the “effect on CD62L shedding / soluble CD62L” value was “suppressed CD62L shedding”.

Staying with this series, now noted: titration of HAART compounds, concentration range tested.
As to `Cc1nnc(C(=O)NC(C)(C)c2nc(C(=O)NCc3ccc(F)cc3)c(O)c(=O)n2C)o1` [raltegravir], the “effect on CD62L shedding from stimulated PBMC” value is “did not inhibit CD62L shedding”.

Take `Cc1ccnc2c1NC(=O)c1cccnc1N2C1CC1` [nevirapine]: the “effect on CD62L shedding from stimulated PBMC” value was “did not inhibit CD62L shedding”.

For a further series, the system named is CD62L shedding. The series is described as follows: Soluble CD62L ELISA, unstimulated PBMC. The following applies: 10 μM compound; non-stimulated cells; ELISA. Format: cell-based, human. The procedure: PBMC from de-identified healthy donors were obtained with informed consent from the Department of Transfusion Medicine, National Institutes of Health under Biological reagent Registry RD-14-IX-12 approved by NIH biological safety board. CD8-depleted PBMCs, either stimulated or non-stimulated with 10 μg/mL phytohaemagglutinin (PHA) or anti-CD3 antibody (with or without conjugated beads), were plated at 2×10^6 cells/ml in 48 well plates in RPMI 1640 + 10%FBS (R10) to a final volume of 1 mL in each well. IL-2 was added at a final concentration of 20 U/mL. CD3 antibody okt3 was used at ~0.2 μg/mL final concentration. […] Supernatants were collected and assessed using either the CD62L or TNF-α Duo Set ELISA kit according to manufacturer's instructions (R&D Systems, Inc.). The viability of cells treated with compounds was assessed by acridine orange / propidiom iodide (AO/PI Logosbio catalog F23001) staining using Luna-FL cell counter following the manufacture's instruction.^2 […] Supplemental Figure 1. CD62L shedding from unstimulated PBMC. A) Soluble CD62L in the supernatant of unstimulated PBMC was measured By ELISA (R&D systems, Inc) after 24 hour treatment in the presence of 10 μM of […]), aminopeptidase (AP) protease inhibitors, respectively, or their untreated controls. Statistics were calculated using unpaired parametric student t-test between individual treatment and DMSO control. […] B) Viability of PBMC treated with 10-500 μM of MMP inhibitors for 24hours. […] Untreated DMSO AEBSF 3,4-Dichloroisocouman Granzyme B Inhibitor II Granzyme B Inhibitor IV Aprotinin […] 3 4 CD62L shedding from unstimulated PBMC Soluble CD62L (ng/ml) Inhibitor Class […] GI254023X 10 GI254023X 100 […] GI254023X 1000 GW280264X 10 GW280264X 100 […] GW280264X 1000 Marimastat 10 Marimastat 100 Marimastat 250 […]
For orientation: ELISA stands for enzyme-linked immunosorbent assay.
As for `Cc1cc(CCC[C@H](CC(=O)NO)C(=O)N[C@H](C(=O)N[C@H](C)c2ccccc2)C(C)(C)C)ccc1-c1ccccc1` [UK-356618, (2R)-N1-[(1S)-2,2-Dimethyl-1-({[(1R)-1-phenylethyl]amino}carbonyl)propyl]-2-{3-[(3-methyl-4-phenyl)-phenyl]propyl}-(N4-hydroxy)butanediamide], the “Shedding inhibition Non-stim.” value is on record as “− (0% inhibition)”.

The same series, now with this note: 100 μM compound; non-stimulated cells; ELISA.
With `CCOCOC[C@H](C[C@H](C)C(=O)NO)NC(=O)c1ccc(Oc2ccccc2)cc1` [ONO-4817], the “Shedding inhibition Non-stim.” value is “+ (20–50)”.
